Experiments:
androgen receptor = target: T1, androgen receptor (Homo sapiens, UniProt P10275, T878A); test: PSA (6.1 kb)-luciferase reporter assay in LNCaP cells induced with R1881; type: cell-based; settings: R1881 1 nM, 48 h, mean with standard error
T1 construct: endogenous in cells; host or cells: LNCaP
T1 sequence (P10275 1-920 T878A): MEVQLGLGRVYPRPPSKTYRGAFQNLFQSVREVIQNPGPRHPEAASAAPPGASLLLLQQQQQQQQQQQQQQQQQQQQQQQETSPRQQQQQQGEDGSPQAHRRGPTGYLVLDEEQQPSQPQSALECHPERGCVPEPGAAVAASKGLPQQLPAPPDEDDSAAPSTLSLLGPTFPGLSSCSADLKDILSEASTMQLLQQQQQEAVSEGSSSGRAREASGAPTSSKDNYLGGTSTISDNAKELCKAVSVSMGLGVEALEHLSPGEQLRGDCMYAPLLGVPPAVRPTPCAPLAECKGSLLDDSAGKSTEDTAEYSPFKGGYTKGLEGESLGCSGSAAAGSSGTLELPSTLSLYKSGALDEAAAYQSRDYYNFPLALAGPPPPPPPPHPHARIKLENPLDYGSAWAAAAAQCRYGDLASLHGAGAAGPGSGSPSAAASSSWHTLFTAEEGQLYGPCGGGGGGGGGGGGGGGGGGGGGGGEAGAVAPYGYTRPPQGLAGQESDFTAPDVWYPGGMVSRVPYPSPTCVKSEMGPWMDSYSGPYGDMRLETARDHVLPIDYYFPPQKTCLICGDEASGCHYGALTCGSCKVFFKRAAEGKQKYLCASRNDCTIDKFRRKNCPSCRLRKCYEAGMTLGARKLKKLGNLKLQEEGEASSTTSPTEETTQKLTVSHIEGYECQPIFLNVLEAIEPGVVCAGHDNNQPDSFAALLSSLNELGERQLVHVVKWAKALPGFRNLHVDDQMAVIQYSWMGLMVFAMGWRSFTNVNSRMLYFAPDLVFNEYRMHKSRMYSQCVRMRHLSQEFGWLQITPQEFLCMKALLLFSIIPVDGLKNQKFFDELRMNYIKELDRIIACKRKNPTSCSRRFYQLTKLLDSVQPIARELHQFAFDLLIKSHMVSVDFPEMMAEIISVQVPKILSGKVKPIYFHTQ
Experimental: LNCaP cells (3×10^4) were seeded into 24-well plates overnight. […] Luciferase activities were measured and normalized to protein concentration determined by the Bradford assay. IC50 calculations were done using OriginPro 8.1 Software (Northampton, MA, USA). Transfection experiments to determine IC50 values were performed in at least 4 independent experiments (“trials”) using triplicate wells.

LNCaP xenografts = test: LNCaP xenograft model in castrated NOD-SCID mice, tumor volume; type: in vivo
Experimental: LNCaP Cell Preparation: LNCaP cells were passaged prior to seeding in T175flasks at a concentration of ˜2-3×10^7/mL. The cells were grown for 7 days until 90% confluent. Cell preparations were then prepared in RPMI with 5% FBS/Matrigel (50/50, v/v) yielding a final concentration of 1×10^8/mL.
Tumor Induction and Treatment: Six to eight week old NOD-SCID mice were received from BC Cancer Research Centre's Animal Resource Centre and acclimated for 28 days. Tumors were initiated with […]. Tumors were allowed to grow to an average size of approximately 100 mm^3. Mice were then castrated and the tumors allowed to adapt for a period of one week before first dose was administered. Tumor volume was measured as length×width×height in mm multiplied by 0.5236.
Compound Preparation and Treatment: Compound 1a was dissolved in 100% DMSO (ATCC Lot 61908420) to yield a stock solution of 157 mg/mL. Compound 1a was administered as an oral gavage once per day at dose levels of 10 and 30 mg/kg. Vehicle control animals were administered 1% CMC formulation as an oral gavage once daily. […]
Oral treatment was initiated one week after castration. […] Two days after the last dose, the tumours were measured and harvested. Body weight was assessed daily throughout the treatment period. Tumor volume was measured on day −7 (castration day), and again on days 1, 4, 8, 12, 16, 20, 24 and 26.

[1] = Body weight in LNCaP xenograft model; type: in vivo, mice; settings: daily oral 10 or 30 mg/kg, start vs day 26, vs CMC control
Experimental: Compound Preparation and Treatment: Compound 1a was dissolved in 100% DMSO (ATCC Lot 61908420) to yield a stock solution of 157 mg/mL. Compound 1a was administered as an oral gavage once per day at dose levels of 10 and 30 mg/kg. Vehicle control animals were administered 1% CMC formulation as an oral gavage once daily. CMC (n=17 tumours); 10 mg/kg (n=15 tumours); 30 mg/kg (n=14 tumours). CMC (n=9 animals); 10 mg/kg (n=9 animals); 30 mg/kg (n=9 animals).
Oral treatment was initiated one week after castration. The start of treatment was designated “Day 1” and animals were treated once daily for a total of 24 doses. Two days after the last dose, the tumours were measured and harvested. Body weight was assessed daily throughout the treatment period. Tumor volume was measured on day −7 (castration day), and again on days 1, 4, 8, 12, 16, 20, 24 and 26.

PSA mRNA = PSA mRNA in LNCaP xenografts by QPCR; type: in vivo, mice
Source text: Quantitative Real-Time Polymerase Chain Reaction (QPCR) Method: LNCaP xenografts were homogenized using TRIzol® reagent (Invitrogen™), and total RNA was extracted using PureLink RNA Mini Kit (Life Technologies). Amplification Grade DNase I treatment (Sigma-Aldrich) was applied to the RNA before RT-PCR using High Capacity RNA-to-DNA kit (Life Technologies) to generate cDNA. cDNA and gene-specific primers were combined with Platinum® SYBR® Green qPCRSuperMix-UDG with ROX (Invitrogen™). Transcripts were measured by quantitative real-time PCR (QPCR) using ABI PRISM 7900 Sequence Detection System (ABI PRISM®, Applied Biosystems by Life Technologies) in triplicates for each biological sample. Gene expression levels were normalized to housekeeping gene RPL13A. Primers for PSA have been previously described (Andersen R. J., et al. Cancer Cell. 2010; Myung J. K., et al. J. Clin. Invest. 2013).
In FIG. 6, bars represent mean±SEM with n=5 representative tumors from each treatment group. One-way ANOVA post-hoc Tukey's multiple comparisons test was performed for statistical analysis. *p<0.05; **p<0.01; ***p<0.001.

IC50 (androgen receptor) [nM]	Compound	further results
10700 ± 1040	CC(=O)OC[C@H](COc1ccc(C(C)(C)c2ccc(OC[C@@H](CCl)OC(C)=O)cc2)cc1)OC(C)=O [B, reference compound]	–
2470 ± 260	CC(C)(c1ccc(OC[C@H](O)CO)cc1)c1ccc(OC[C@H](O)CCl)c(Cl)c1 [C, reference compound]	–
1410 ± 270	CC(C)(c1ccc(OC[C@H](O)CO)cc1)c1cc(Cl)c(OC[C@H](O)CCl)c(Cl)c1 [Compound 1a, (R)-3-(4-(2-(3,5-dichloro-4-((S)-3-chloro-2-hydroxypropoxy)phenyl)propan-2-yl)phenoxy)propane-1,2-diol]	tumor growth / tumor volume at the end of the treatment period (LNCaP xenografts; daily oral 10 mg/kg or 30 mg/kg, castrated NOD-SCID mice, day 26, vs CMC control): inhibition of tumor growth and significant reduction of tumor volume; difference in tumor volumes between the 10 mg/kg and 30 mg/kg doses (LNCaP xenografts; daily oral, 10 mg/kg vs 30 mg/kg): no statistical difference in the tumor volumes; start and finish body weights [1]: no significant differences between the start and finish body weights; mRNA expression of PSA in tumors (PSA mRNA; 30 mg/kg oral daily, compared to the 10 mg/kg dose and control treatment): significant reduction of PSA expression; mRNA expression of PSA in tumors (PSA mRNA; 10 and 30 mg/kg oral daily, QPCR normalized to RPL13A, n=5 tumors): dose-dependent inhibition of the mRNA expression of PSA
1030 ± 390	COC[C@@H](O)COc1ccc(C(C)(C)c2cc(Cl)c(OC[C@H](O)CCl)c(Cl)c2)cc1 [Compound 5a, (S)-1-chloro-3-(2,6-dichloro-4-(2-(4-((R)-2-hydroxy-3-methoxypropoxy)phenyl)propan-2-yl)phenoxy)propan-2-ol]	–
3120 ± 680	CC(C)(c1ccc(OC[C@H](O)Cn2ccnc2)cc1)c1cc(Cl)c(OC[C@H](O)CCl)c(Cl)c1 [Compound 9a, (S)-1-chloro-3-(2,6-dichloro-4-(2-(4-((R)-2-hydroxy-3-(1H-imidazol-1-yl)propoxy)phenyl)propan-2-yl)phenoxy)propan-2-ol]	–
1050 ± 150	CC(C)(c1ccc(OC[C@H](O)CN2CCOCC2)cc1)c1cc(Cl)c(OC[C@H](O)CCl)c(Cl)c1 [Compound 11a, (S)-1-chloro-3-(2,6-dichloro-4-(2-(4-((R)-2-hydroxy-3-morpholinopropoxy)phenyl)propan-2-yl)phenoxy)propan-2-ol]	–
2260 ± 240	CC(C)(c1ccc(OC[C@H](O)CN)cc1)c1cc(Cl)c(OC[C@H](O)CCl)c(Cl)c1 [Compound 12a, (R)-1-amino-3-(4-(2-(3,5-dichloro-4-((S)-3-chloro-2-hydroxypropoxy)phenyl)propan-2-yl)phenoxy)propan-2-ol]	–
1000 ± 160	CC(C)(c1ccc(OC[C@H](O)CNS(C)(=O)=O)cc1)c1cc(Cl)c(OC[C@H](O)CCl)c(Cl)c1 [Compound 13a, N-((R)-3-(4-(2-(3,5-dichloro-4-((S)-3-chloro-2-hydroxypropoxy)phenyl)propan-2-yl)phenoxy)-2-hydroxypropyl)methanesulfonamide]	–
950 ± 210	CCS(=O)(=O)C[C@@H](O)COc1ccc(C(C)(C)c2cc(Cl)c(OC[C@H](O)CCl)c(Cl)c2)cc1 [Compound 14a, (S)-1-chloro-3-(2,6-dichloro-4-(2-(4-((S)-3-(ethylsulfonyl)-2-hydroxypropoxy)phenyl)propan-2-yl)phenoxy)propan-2-ol]	–

Source: patent US11919874B2, “Bisphenol derivatives and their use as androgen receptor activity modulators” (The University of British Columbia, priority 2016, dated 2024)
